Reference: patent US9968582B2, “Use of a benzoate containing composition in urea cycle disorders and neurodegenerative disorders” (Rush University Medical Center, priority 2014, dated 2018)

Key:
[1] = test system: spinal cord of EAE mice; experiment: H&E histology, infiltration of inflammatory cells and cuffed vessels in spinal cord of EAE mice; format: in vivo; details: GTB from 8 dpt, sacrificed 16 dpt
Source text: On 14 dpi (first chronic phase), five mice from each of the following groups (control, EAE, EAE+GTB, and EAE+vehicle) were anesthetized. After perfusion with phosphate buffered saline (PBS) (pH 7.4) and then with 4% (w/v) paraformaldehyde solution in PBS, cerebellum and whole spinal cord was dissected out from each mouse. The tissues were further fixed and then divided into halves: one-half was used for histological staining whereas the other half was used for myelin staining. For histological analysis, routine histology was performed to obtain perivascular cuffing and morphological details of CNS tissues of EAE mice. Paraformaldehyde-fixed tissues were embedded in paraffin, and serial sections (4 μm) were cut. Sections were stained with conventional H&E staining method. Digital images were collected under bright-field setting using an ×40 objective. Slides were assessed in a blinded fashion by three examiners for inflammation in different anatomical compartments (meninges and parenchyma). Inflammation was scored using the following scale as described: for meninges and parenchyma: 0, no infiltrating cells; 1, few infiltrating cells; 2, numerous infiltrating cells; and 3, widespread infiltration. For vessels: 0, no cuffed vessel; 1, one or two cuffed vessels per section; 2, three to five cuffed vessels per section and 3, more than five cuffed vessels per section. At least six serial sections of each spinal cord from each of five mice per group were scored and statistically analyzed by ANOVA.
Infiltration of autoreactive T cells and associated mononuclear cells is a hallmark of EAE as well as MS. The inventor examined whether GTB treatment attenuated infiltration and inflammation in adoptively-transferred EAE mice. Mice receiving GTB from 8 dpt (onset of the acute phase) were sacrificed on 16 dpt. […] In contrast, vehicle was unable to inhibit the infiltration of inflammatory cells (FIG. 4A).

[2] = test system: dopamine (DA) in the striata; experiment: MPTP mouse model of PD, HPLC of striatal dopamine; format: in vivo, mice; details: FIG. 10
Method: Six- to eight-week old C57BL/6 mice were purchased from Harlan (Indianapolis, Ind.). For acute MPTP intoxication, mice received four intraperitoneal (i.p.) injections of MPTP-HCl (18 mg/kg of free base; Sigma Chemical Co., St. Louis, Mo.) in saline at 2-h intervals. Control animals received only saline.
GTB was mixed in 0.5% methylcellulose (MC) and from 3 h after the last injection of MPTP, mice were gavaged 100 μL GTB-mixed MC once daily using gavage needle. Therefore, control MPTP mice received only MC as vehicle.
Striatal level of dopamine was quantified in Complete Stand-Alone HPLC-ECD System EiCOMHTEC-500 (JM Science Inc., Grand Island, N.Y.). Briefly, mice were sacrificed by cervical dislocation after 7 days of MPTP intoxication and their striata were collected and immediately frozen in dry ice and stored at −80° C. until analysis. On the day of the analysis, tissues were sonicated in 0.2M perchloric acid containing isoproterenol and resulting homogenates were centrifuged at 20,000×g for 15 min at 4 C. After pH adjustment and filtration, 10 μl of supernatant was injected onto an Eicompak SC-3ODS column (Complete Stand-Alone HPLC-ECD System EiCOMHTEC-500 from JM Science Inc., Grand Island, N.Y.) and analyzed following the manufacturer's protocol.
Next, to determine whether GTB protects against biochemical deficits caused by MPTP, the inventor quantified levels of dopamine (DA) in the striata 7 days after the MPTP treatment. As evident from FIG. 10, MPTP intoxication led to about 75% decrease in striatal DA compared to striata of saline-injected control mice.

O=C(OCC(COC(=O)c1ccccc1)OC(=O)c1ccccc1)c1ccccc1 [GTB, glyceryl tribenzoate]
infiltration of inflammatory cells into the spinal cord (H&E) ([1]; FIG. 4A): markedly inhibited the infiltration of inflammatory cells | quantitation of infiltration ([1]; FIG. 4B): dramatically reduced infiltration | appearance of cuffed vessels ([1]; FIG. 4C): dramatically reduced | decrease in striatal dopamine ([2]; GTB 50 mg/kg body wt/d in MPTP-intoxicated mice, MPTP alone about 75% decrease): 25% | dopamine in the striatum ([2]; GTB in MPTP-intoxicated mice, 7 days after MPTP): dose-dependently protected dopamine
